Molecules are shown by their SMILES.

One test deals with T1, PKA catalytic domain (Homo sapiens, UniProt P17612).
T1 construct: using the PKA catalytic domain from Upstate Biotechnology (#14-440); purchased Upstate Biotechnology 14-440
Put plainly: Measurement of PKA kinase inhibitory activity (IC50), radiometric filter plate assay. The class given is biochemical. Conditions: 1 nM enzyme, 40 μM ATP, 20 minutes. The procedure:
Compounds of the invention can be tested for PK inhibitory activity using the PKA catalytic domain from Upstate Biotechnology (#14-440) and the 9 residue PKA specific peptide (GRTGRRNSI), also from Upstate Biotechnology (#12-257), as the substrate. A final concentration of 1 nM enzyme is used in a buffer that includes 20 mM MOPS pH 7.2, 40 μM ATP/γ^33P-ATP and […] substrate. Compounds are added in dimethylsulphoxide (DMSO) solution to a final DMSO concentration of 2.5%. The reaction is allowed to proceed for 20 minutes before addition of excess orthophosphoric acid to quench activity. Unincorporated γ^33P-ATP is then separated from phosphorylated proteins on a Millipore MAPH filter plate. The plates are washed, scintillant is added and the plates are then subjected to counting on a Packard Topcount.
The % inhibition of the PKA activity is calculated and plotted in order to determine the concentration of test compound required to inhibit 50% of the PKA activity (IC50).

The target in another test is T2, PKB-PIF fusion protein (Homo sapiens, UniProt P31751).
T2 construct: PIF (fusion partner); made in house
T2 sequence (P31751 with tags, fused parts or gaps limits assumed): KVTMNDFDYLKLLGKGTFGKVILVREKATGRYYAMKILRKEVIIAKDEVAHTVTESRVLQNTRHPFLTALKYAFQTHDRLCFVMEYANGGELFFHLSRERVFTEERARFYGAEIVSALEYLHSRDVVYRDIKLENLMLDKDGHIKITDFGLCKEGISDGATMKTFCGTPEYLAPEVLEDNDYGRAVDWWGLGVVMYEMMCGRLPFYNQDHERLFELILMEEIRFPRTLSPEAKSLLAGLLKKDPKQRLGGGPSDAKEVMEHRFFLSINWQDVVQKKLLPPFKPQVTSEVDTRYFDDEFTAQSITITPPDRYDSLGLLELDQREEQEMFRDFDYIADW
Put plainly: Measurement of PKB kinase inhibitory activity (IC50), radiometric filter plate assay. The class given is biochemical. Conditions: 0.6 nM enzyme, 30 μM ATP, AKTide-2T substrate, 20 minutes. From the text:
The inhibition of protein kinase B (PKB) activity by compounds can be determined essentially as described by Andjelkovic et al. (Mol. Cell. Biol. 19, 5061-5072 (1999)) but using a fusion protein described as PKB-PIF and described in full by Yang et al (Nature Structural Biology 9, 940-944 (2002)). The protein is purified and activated with PDK1 as described by Yang et al. The peptide AKTide-2T (H-A-R-K-R-E-R-T-Y-S-F-G-H-H-A-OH) obtained from Calbiochem (#123900) is used as a substrate. A final concentration of 0.6 nM enzyme is used in a buffer that includes 20 mM MOPS pH 7.2, 30 μM ATP/γ^33P-ATP and 25 µM substrate. Compounds are added in DMSO solution to a final DMSO concentration of 2.5%. The reaction is allowed to proceed for 20 minutes before addition of excess orthophosphoric acid to quench activity. The reaction mixture is transferred to a phosphocellulose filter plate where the peptide binds and the unused ATP is washed away. After washing, scintillant is added and the incorporated activity measured by scintillation counting.
The % inhibition of the PKB activity is calculated and plotted in order to determine the concentration of test compound required to inhibit 50% of the PKB activity (IC50).

Test [1] relates to phosphorylation of Serine-9 residue in Glycogen Synthase Kinase-3beta as surrogate marker of cellular PKB (Akt) activity. Nature of the test: In vitro MDA-MB-468 human breast adenocarcinoma GSK-3 phosphorylation assay. The note with it: MDA-MB-468 cells, 2 hours compound incubation, mean IC50, read-out: Cell pGSK3b IC50. The class given is cell-based. In outline:
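MDA-MB-468 cells (5000/well) were treated with compound for 2 h at 37° C, then fixed and immunostained for phospho-Ser9 GSK-3β with an Alexa Fluor 488 secondary antibody. Fluorescence was quantified on an Acumen Explorer. IC50 came from a background-corrected 4-parameter logistic fit with minimum set to zero; obvious outliers were excluded from means.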

In the case of `NC1(c2nc3cccc(F)c3[nH]2)CCN(c2ncnc3[nH]ccc23)CC1` [Example 1, 4-(7-Fluoro-1H-benzoimidazol-2-yl)-1-(7H-pyrrolo[2,3-d]pyrimidin-4-yl)-piperidin-4-ylamine], the IC50 was under 1000 nM on PKA catalytic domain and under 100 nM against PKB-PIF fusion protein.
Consider `NC1(c2nc3cc(F)c(F)cc3[nH]2)CCN(c2ncnc3[nH]ccc23)CC1` [Example 2, 4-(5,6-Difluoro-1H-benzoimidazol-2-yl)-1-(7H-pyrrolo[2,3-d]pyrimidin-4-yl)-piperidin-4-ylamine], for which the values for the IC50 against PKA catalytic domain and on PKB-PIF fusion protein were under 1000 nM and under 100 nM, respectively.
The matching figures for `NC1(c2nc3ccc(F)c(F)c3[nH]2)CCN(c2ncnc3[nH]ccc23)CC1` [Example 3, 4-(6,7-Difluoro-1H-benzoimidazol-2-yl)-1-(7H-pyrrolo[2,3-d]pyrimidin-4-yl)-piperidin-4-ylamine]: under 1000 nM and under 100 nM.
Consider `Cc1cccc2nc(C3(N)CCN(c4ncnc5[nH]ccc45)CC3)[nH]c12` [Example 4, 4-(7-Methyl-1H-benzoimidazol-2-yl)-1-(7H-pyrrolo[2,3-d]pyrimidine-4-yl)-piperidin-4-ylamine], for which the results for the IC50 on PKA catalytic domain and at PKB-PIF fusion protein were under 1000 nM and under 100 nM, respectively.
At PKB-PIF fusion protein, `Cc1ccc2nc(C3(N)CCN(c4ncnc5[nH]ccc45)CC3)[nH]c2c1` [Example 5, 4-(6-Methyl-1H-benzoimidazol-2-yl)-1-(7H-pyrrolo[2,3-d]pyrimidin-4-yl)-piperidin-4-ylamine] showed an IC50 of under 100 nM.
With `NC1(c2nc3cc(F)cc(F)c3[nH]2)CCN(c2ncnc3[nH]ccc23)CC1` [Example 7, 4-(5,7-Difluoro-1H-benzoimidazol-2-yl)-1-(7H-pyrrolo[2,3-d]pyrimidin-4-yl)-piperidin-4-ylamine], the half-maximal inhibitory concentration (IC50) in test [1] was 940 nM; against PKB-PIF fusion protein, under 100 nM.
For the molecule `COc1ccc2[nH]c(C3(N)CCN(c4ncnc5[nH]ccc45)CC3)nc2c1` [Example 8, 4-(5-Methoxy-1H-benzoimidazol-2-yl)-1-(7H-pyrrolo[2,3-d]pyrimidin-4-yl)-piperidin-4-ylamine], the IC50 against PKA catalytic domain was under 1000 nM; against PKB-PIF fusion protein, under 100 nM.
Molecule `COc1cccc2[nH]c(C3(N)CCN(c4ncnc5[nH]ccc45)CC3)nc12` [Example 9, 4-(4-Methoxy-1H-benzoimidazol-2-yl)-1-(7H-pyrrolo[2,3-d]pyrimidin-4-yl)-piperidin-4-ylamine] showed an IC50 at PKB-PIF fusion protein of under 100 nM.
With `NC1(c2nc3cnccc3[nH]2)CCN(c2ncnc3[nH]ccc23)CC1` [Example 10], on PKB-PIF fusion protein, the half-inhibitory concentration (IC50) was under 100 nM.
Regarding `NC1(c2nc3ccccc3[nH]2)CCN(c2ncnc3[nH]ccc23)CC1` [Example 12, 4-(1H-benzoimidazol-2-yl)-1-(7H-pyrrolo[2,3-d]pyrimidin-4-yl)-piperidin-4-ylamine], the concentration for half-maximal inhibition (IC50) at PKA catalytic domain is under 1000 nM; against PKB-PIF fusion protein, under 100 nM.
In the case of `NC1(c2nc3ccccc3[nH]2)CCN(c2ncnc3[nH]c(=O)[nH]c23)CC1` [Example 18, 6-[4-amino-4-(1H-benzoimidazol-2-yl)-piperidin-1-yl]-7,9-dihydro-purin-8-one], the IC50 was under 1000 nM against PKA catalytic domain and under 100 nM against PKB-PIF fusion protein.
Turning to `NC1(c2nc3ccccc3[nH]2)CCN(c2ccnc3[nH]ccc23)CC1` [Example 19, 4-(1H-benzoimidazol-2-yl)-1-(1H-pyrrolo[2,3-b]pyridin-4-yl)-piperidin-4-ylamine], the concentration for half-maximal inhibition (IC50) against PKB-PIF fusion protein was under 100 nM.
The same measure, in the same setting: with `NC1(c2nc3ccc(Cl)cc3[nH]2)CCN(c2ccnc3[nH]ccc23)CC1` [Example 20, 4-(6-chloro-1H-benzoimidazol-2-yl)-1-(1H-pyrrolo[2,3-b]pyridin-4-yl)-piperidin-4-ylamine] the figure was under 100 nM.
On the same count and under the same terms, with `CNC1(c2nc3ccccc3[nH]2)CCN(c2ncnc3[nH]ccc23)CC1` [Example 33, [4-(1H-benzoimidazol-2-yl)-1-(7H-pyrrolo[2,3-d]pyrimidin-4-yl)-piperidin-4-yl]-methyl-amine] the figure was under 1000 nM; with `NCC1(c2nc3ccccc3[nH]2)CCN(c2ncnc3[nH]ccc23)CC1` [Example 34, C-[4-(1H-Benzoimidazol-2-yl)-1-(7H-pyrrolo[2,3-d]pyrimidin-4-yl)-piperidin-4-yl]-methylamine], under 100 nM.
For the molecule `OCC1(c2nc3ccccc3[nH]2)CCN(c2ncnc3[nH]ccc23)CC1` [Example 35, [4-(1H-Benzoimidazol-2-yl)-1-(7H-pyrrolo[2,3-d]pyrimidin-4-yl)-piperidin-4-yl]-methanol], the IC50 against PKA catalytic domain and at PKB-PIF fusion protein was under 1000 nM each time.
Molecule `NCC1(c2nc3ccccc3o2)CCN(c2ncnc3[nH]ccc23)CC1` [Example 36, C-[4-Benzooxazol-2-yl-1-(7H-pyrrolo[2,3-d]pyrimidin-4-yl)-piperidin-4-yl]-methylamine] had an IC50 on PKB-PIF fusion protein of under 100 nM.
As for `NC1(c2nc3ccccc3o2)CCN(c2ncnc3[nH]ccc23)CC1` [Example 37, 4-Benzooxazol-2-yl-1-(7H-pyrrolo[2,3-d]pyrimidin-4-yl)-piperidin-4-ylamine], the concentration for half-maximal inhibition (IC50) is under 1000 nM against PKA catalytic domain and under 100 nM on PKB-PIF fusion protein.
The molecule `NC1(c2nc3ccccc3o2)CCN(c2ncnc3[nH]c(=O)[nH]c23)CC1` [Example 38, 6-(4-amino-4-benzooxazol-2-yl-piperidin-1-yl)-7,9-dihydro-purin-8-one] returned an IC50 on PKB-PIF fusion protein of under 1000 nM.
The same measure, in the same setting: the same measure for `NC1(c2ncc(-c3ccccc3)[nH]2)CCN(c2ncnc3[nH]ccc23)CC1` [Example 39, 4-(5-Phenyl-1H-imidazol-2-yl)-1-(7H-pyrrolo[2,3-d]pyrimidin-4-yl)-piperidin-4-ylamine]: under 100 nM.
`NC1(c2ncc(-c3ccccc3)o2)CCN(c2ncnc3[nH]ccc23)CC1` [Example 40, 4-(5-Phenyl-oxazol-2-yl)-1-(7H-pyrrolo[2,3-d]pyrimidin-4-yl)-piperidin-4-ylamine] yielded an IC50 against PKB-PIF fusion protein of under 1000 nM.
On the same count and under the same terms, the same measure for `NC1(c2ncc(-c3ccccc3)[nH]2)CCN(c2ccnc3[nH]ccc23)CC1` [Example 41, 4-(5-phenyl-1H-imidazol-2-yl)-1-(1H-pyrrolo[2,3-b]pyridin-4-yl)-piperidin-4-ylamine]: under 100 nM.
For `CS(=O)(=O)c1ccc(-c2cccc3[nH]c(C4(N)CCN(c5ncnc6[nH]ncc56)CC4)nc23)cc1` [Example 110, 4-[4-(4-methylsulfonylphenyl)-1H-benzo[d]imidazol-2-yl)-1-(1H-pyrazolo[3,4-d]pyrimidin-4-yl)piperidin-4-amine], the IC50 in test [1] stood at 490 nM.
Same read-out and setting: the same measure for `NC1(c2nc3c(-c4ccoc4)cccc3[nH]2)CCN(c2ncnc3[nH]ncc23)CC1` [Example 111, 4-(4-furan-3-yl-1H-benzo[d]imidazol-2-yl)-1-(1H-pyrazolo[3,4-d]pyrimidin-4-yl)piperidin-4-amine]: 110 nM.
Same read-out and setting: with `CS(=O)(=O)c1ccccc1-c1cccc2nc(C3(N)CCN(c4ncnc5[nH]ccc45)CC3)[nH]c12` [Example 112, 4-[7-(2-methylsulfonylphenyl)-1H-benzimidazol-2-yl]-1-(7H-pyrrolo[3,2-e]pyrimidin-4-yl)piperidin-4-amine] the figure was 300 nM; with `NCc1cc(-c2cccc3[nH]c(C4(N)CCN(c5ncnc6[nH]ccc56)CC4)nc23)ccc1F` [Example 113, 4-(4-(3-(aminomethyl)-4-fluorophenyl)-1H-benzo[d]imidazol-2-yl)-1-(7H-pyrrolo[2,3-d]pyrimidin-4-yl)piperidin-4-amine], 38 nM; with `CS(=O)(=O)Cc1cccc(-c2cccc3[nH]c(C4(N)CCN(c5ncnc6[nH]ccc56)CC4)nc23)c1` [Example 115, 4-(4-(3-(methylsulfonylmethyl)phenyl)-1H-benzo[d]imidazol-2-yl)-1-(7H-pyrrolo[2,3-d]pyrimidin-4-yl)piperidin-4-amine], 270 nM.
On the same count and under the same terms, with `CS(=O)(=O)Cc1ccccc1-c1cccc2[nH]c(C3(N)CCN(c4ncnc5[nH]ccc45)CC3)nc12` [Example 116, 4-(4-(2-(methylsulfonylmethyl)phenyl)-1H-benzo[d]imidazol-2-yl)-1-(7H-pyrrolo[2,3-d]pyrimidin-4-yl)piperidin-4-amine] the figure was 47 nM.

A word on the IC50: it is the midpoint of a concentration-inhibition curve.

Values taken from patent US20100093748A1, “SUBSTITUTED PIPERIDINES HAVING PROTEIN KINASE INHIBITING ACTIVITY” (ASTEX THERAPEUTICS LIMITED, priority 2006, published 2010).
